Source: PMC8074941, “Synthesis of cyclotetrapeptide analogues of c-PLAI and evaluation of their antimicrobial properties” (Royal Society Open Science, 2021)
≈ marks a conversion by molar mass, not a printed value. Where two headings read alike, the source gives them in different places. Where a SMILES comes first, the peptide text is derived from it.

How the values were obtained:
[1] = test system: C. albicans ATCC 10231
Protocol: (§1) Tools and materials were sterilized in an autoclave for 15 min at 121°C. Fungal culture was grown in agar media (Potato Dextrose agar) by picking some fungal colony using an inoculating loop, followed by incubation at 30°C for 24–48 h. Fungal culture was then suspended in liquid media (Potato Dextrose Broth). The suspended fungal culture was then incubated for 24–48 h at 30°C. The suspended fungal culture was then incubated at 30°C for 24 h and standardized equal to 0.5 Mc Farland (2 × 10^8 CFU ml^−1). The culture was diluted into the concentration of 5 × 10^5 CFU ml^−1.
(§2) Six tetrapeptides and six cyclotetrapeptides were dissolved in DMSO 2% with a concentration of 1 µg mL^−1. Each solution was dissolved gradually. Subsequently, 12 sample solutions, ciprofloxacin, nystatin, ketoconazole and DMSO 2% were incubated on a 96-well microplate at 37°C for 18 h. The result was interpreted using a spectrophotometer, with a wavelength of 600 nm. MIC was measured as the percentage of microbial inhibition and cell death.

[2] = test system: B. cereus ATCC 11778; assay: microbe, parasite or virus in culture
Protocol: as §1, with “Bacterial” for “Fungal”, “(Mueller Hinton” for “(Potato Dextrose”, “bacterial” for “fungal”, “37°C” for “30°C”, “24” for “24–48”, “bacterial” for “fungal culture was then incubated for 24–48 h at 30°C. The suspended fungal”
as §2

[3] = test system: E. coli ATCC 11229; assay: microbe, parasite or virus in culture; settings: for minimum inhibitory concentration (MIC) E. coli ATCC 11229: ATCC 11229, 18 h
Protocol: as §1, with “Bacterial” for “Fungal”, “(Mueller Hinton” for “(Potato Dextrose”, “bacterial” for “fungal”, “37°C” for “30°C”, “24” for “24–48”, “bacterial” for “fungal culture was then incubated for 24–48 h at 30°C. The suspended fungal”
as §2

[4] = test system: K. pneumonia ATCC 2357; assay: microbe, parasite or virus in culture; settings: for minimum inhibitory concentration (MIC) K. pneumonia ATCC 2357: ATCC 2357, 18 h
Protocol: as §1, with “Bacterial” for “Fungal”, “(Mueller Hinton” for “(Potato Dextrose”, “bacterial” for “fungal”, “37°C” for “30°C”, “24” for “24–48”, “bacterial” for “fungal culture was then incubated for 24–48 h at 30°C. The suspended fungal”
as §2

[5] = test system: S. aureus ATCC 6538; assay: microbe, parasite or virus in culture
Protocol: as §1, with “Bacterial” for “Fungal”, “(Mueller Hinton” for “(Potato Dextrose”, “bacterial” for “fungal”, “37°C” for “30°C”, “24” for “24–48”, “bacterial” for “fungal culture was then incubated for 24–48 h at 30°C. The suspended fungal”
as §2

[6] = head-to-tail lactamisation of linear tetrapeptide (N-terminal Pro amine + C-terminal Ile acid), HATU (2 equiv), DIPEA (3 equiv); settings: the molecule shown is the open-chain precursor; 12-membered ring; CH2Cl2 (with ca. 0.2-0.5% DMF); 0.4 mM; 25.0 °C; 1.5 h
[7] = test system: T. mentagrophyte; assay: microbe, parasite or virus in culture; settings: 18 h
Protocol: as §1, §2

[8] = Potato Dextrose Broth, 5 × 10^5 CFU ml^−1, DMSO 2%, 96-well microplate, 37°C, 18 h, read at 600 nm, single experiment
[9] = Mueller Hinton Broth, 5 × 10^5 CFU ml^−1, DMSO 2%, 96-well microplate, 37°C, 18 h, read at 600 nm, single experiment

Compound | minimum inhibitory concentration (MIC) B. cereus ATCC 11778 ([2]; ATCC 11778, 18 h) [µg/mL] | minimum inhibitory concentration (MIC) E. coli ATCC 11229 [3] [µg/mL] | minimum inhibitory concentration (MIC) K. pneumonia ATCC 2357 [4] [µg/mL] | minimum inhibitory concentration (MIC) S. aureus ATCC 6538 ([5]; ATCC 6538, 18 h) [µg/mL] | minimum inhibitory concentration (MIC) C. albicans ATCC 10231 ([1]; ATCC 10231, 18 h) [µg/mL] | minimum inhibitory concentration (MIC) T. mentagrophyte [7] [µg/mL] | ring closure, isolated yield [6] [%] | other results
C[C@@H]1[C@H](O)[C@@H](C)/C=C/C=C/CC/C=C/C=C/C=C/C=C/C(O[C@H]2O[C@H](C)[C@@H](O)[C@H](N)[C@@H]2O)CC2O[C@](O)(CC(O)C(O)CCC(O)CC(O)CC(O)CC(=O)O[C@H]1C)CC(O)C2C(=O)O (stereo partly drawn) [Nystatin, reference compound] | – | – | – | – | – | – | – | minimum inhibitory concentration (MIC) C. albicans ATCC 10231 [1, 8]: 4.88 µg/mL (≈ 5.27 µM)
CC[C@H](C)[C@H](NC(=O)[C@@H]1CCCN1C(=O)[C@H](CC(C)C)NC(=O)[C@@H]1CCCN1)C(=O)O [H-Pro-Leu-Pro-Ile-OH] | – | – | – | – | – | – | 53 | –
CC[C@H](C)[C@H](NC(=O)[C@H](Cc1ccccc1)NC(=O)[C@H](CCCCNC(=O)OC(C)(C)C)NC(=O)[C@@H]1CCCN1)C(=O)O [H-Pro-Lys(Boc)-Phe-Ile-OH] | – | – | – | – | – | – | 50 | –
O=C(O)c1cn(C2CC2)c2cc(N3CCNCC3)c(F)cc2c1=O [Ciprofloxacin, reference compound] | – | – | – | – | – | – | – | MIC ([2]; Bacillus cereus, ATCC11778, 18 h, read-out: minimum inhibitory concentration (MIC) B. cereus ATCC 11778): 0.195 µg/mL (≈ 0.589 µM); MIC ([3]; Escherichia coli, ATCC11229, 18 h, read-out: minimum inhibitory concentration (MIC) E. coli ATCC 11229): 1.56 µg/mL (≈ 4.71 µM); MIC ([4]; Klebsiella pneumoniae, ATCC2357, 18 h, read-out: minimum inhibitory concentration (MIC) K. pneumonia ATCC 2357): 0.391 µg/mL (≈ 1.18 µM); MIC ([5]; Staphylococcus aureus, ATCC6538, 18 h, read-out: minimum inhibitory concentration (MIC) S. aureus ATCC 6538): 0.098 µg/mL (≈ 0.296 µM)
CC[C@H](C)[C@@H]1NC(=O)[C@H](Cc2ccccc2)NC(=O)[C@H](CCCCN)NC(=O)[C@@H]2CCCN2C1=O [c-PKFI, cyclo-(pro-lys-phe-ile)] (cyclo(PKFI)) | – | 31.25 (≈ 64.3 µM) | 250 (≈ 515 µM) | – | – | 125 (≈ 257 µM) | – | minimum inhibitory concentration (MIC) B. cereus ATCC 11778 [2, 9]: 62.5 µg/mL (≈ 129 µM); minimum inhibitory concentration (MIC) S. aureus ATCC 6538 [5, 9]: 62.5 µg/mL (≈ 129 µM); minimum inhibitory concentration (MIC) C. albicans ATCC 10231 [1, 8]: 62.50 µg/mL (≈ 129 µM)
CC[C@H](C)[C@H](NC(=O)[C@@H](NC(=O)[C@H](CC(C)C)NC(=O)[C@@H]1CCCN1)C(C)C)C(=O)O [H-Pro-Leu-Val-Ile-OH] | – | – | – | – | – | – | 52 | –
CC[C@H](C)[C@H](NC(=O)[C@H](Cc1ccccc1)NC(=O)[C@H](CC(C)C)NC(=O)[C@@H]1CCCN1)C(=O)O [H-Pro-Leu-Phe-Ile-OH] | – | – | – | – | – | – | 46 | –
CC[C@H](C)[C@H](NC(=O)[C@H](C)NC(=O)[C@H](CCCCNC(=O)OC(C)(C)C)NC(=O)[C@@H]1CCCN1)C(=O)O [H-Pro-Lys(Boc)-Ala-Ile-OH] | – | – | – | – | – | – | 43 | –
CC(=O)N1CCN(c2ccc(OCC3COC(Cn4ccnc4)(c4ccc(Cl)cc4Cl)O3)cc2)CC1 (stereo not drawn) [Ketokonazole, reference compound] | – | – | – | – | – | – | – | MIC ([7]; Trichophyton mentagrophytes, read-out: minimum inhibitory concentration (MIC) T. mentagrophyte): 312 µg/mL (≈ 588 µM)
CC[C@H](C)[C@H](NC(=O)[C@H](C)NC(=O)[C@H](CC(C)C)NC(=O)[C@@H]1CCCN1)C(=O)O [H-Pro-Leu-Ala-Ile-OH] | – | – | – | – | – | – | 70 | –

More lines, main results first:

minimum inhibitory concentration (MIC) B. cereus ATCC 11778 ([2]; ATCC 11778, 18 h) [µg/mL] | minimum inhibitory concentration (MIC) E. coli ATCC 11229 [3] [µg/mL] | minimum inhibitory concentration (MIC) K. pneumonia ATCC 2357 [4] [µg/mL] | minimum inhibitory concentration (MIC) S. aureus ATCC 6538 ([5]; ATCC 6538, 18 h) [µg/mL] | minimum inhibitory concentration (MIC) C. albicans ATCC 10231 ([1]; ATCC 10231, 18 h) [µg/mL] | minimum inhibitory concentration (MIC) T. mentagrophyte [7] [µg/mL] | Compound | ring closure, isolated yield [6] [%] | other results
500 (≈ 1130 µM) | 500 (≈ 1130 µM) | 500 (≈ 1130 µM) | >1000 | >1000 | – | CC[C@H](C)[C@H](NC(=O)[C@@H](NC(=O)[C@H](CC(C)C)NC(=O)[C@@H]1CCCN1)C(C)C)C(=O)O [PLVI] (H-PLVI-OH) | – | –
500 (≈ 1170 µM) | 250 (≈ 585 µM) | 500 (≈ 1170 µM) | 500 (≈ 1170 µM) | 250 (≈ 585 µM) | 500 (≈ 1170 µM) | CC[C@H](C)[C@H](NC(=O)[C@H](C)NC(=O)[C@H](CCCCN)NC(=O)[C@@H]1CCCN1)C(=O)O [PKAI] (H-PKAI-OH) | – | –
125 (≈ 266 µM) | 125 (≈ 266 µM) | 250 (≈ 531 µM) | 500 (≈ 1060 µM) | 500 (≈ 1060 µM) | 250 (≈ 531 µM) | CC[C@H](C)[C@@H]1NC(=O)[C@H](Cc2ccccc2)NC(=O)[C@H](CC(C)C)NC(=O)[C@@H]2CCCN2C1=O [c-PLFI, cyclo-(pro-leu-phe-ile)] (cyclo(PLFI)) | – | –
125 (≈ 296 µM) | 125 (≈ 296 µM) | 250 (≈ 592 µM) | 500 (≈ 1180 µM) | 500 (≈ 1180 µM) | 62.50 (≈ 148 µM) | CC[C@H](C)[C@@H]1NC(=O)[C@H](C(C)C)NC(=O)[C@H](CC(C)C)NC(=O)[C@@H]2CCCN2C1=O [c-PLVI, cyclo-(pro-leu-val-ile)] (cyclo(PLVI)) | – | –
– | 125 (≈ 297 µM) | 250 (≈ 594 µM) | 250 (≈ 594 µM) | >1000 | – | CC[C@H](C)[C@@H]1NC(=O)[C@@H]2CCCN2C(=O)[C@H](CC(C)C)NC(=O)[C@@H]2CCCN2C1=O [c-PLPI, cyclo(pro-leu-pro-ile)] (cyclo(PLPI)) | – | –
250 (≈ 570 µM) | 500 (≈ 1140 µM) | 500 (≈ 1140 µM) | 500 (≈ 1140 µM) | >1000 | 500 (≈ 1140 µM) | CC[C@H](C)[C@H](NC(=O)[C@@H]1CCCN1C(=O)[C@H](CC(C)C)NC(=O)[C@@H]1CCCN1)C(=O)O [PLPI] (H-PLPI-OH) | – | –
125 (≈ 305 µM) | 62.50 (≈ 153 µM) | 250 (≈ 610 µM) | 125 (≈ 305 µM) | 125 (≈ 305 µM) | 125 (≈ 305 µM) | CC[C@H](C)[C@@H]1NC(=O)[C@H](C)NC(=O)[C@H](CCCCN)NC(=O)[C@@H]2CCCN2C1=O [c-PKAI, cyclo-(pro-lys-ala-ile)] (cyclo(PKAI)) | – | –
– | >1000 | 250 (≈ 606 µM) | >1000 | >1000 | – | CC[C@H](C)[C@H](NC(=O)[C@H](C)NC(=O)[C@H](CC(C)C)NC(=O)[C@@H]1CCCN1)C(=O)O [PLAI] (H-PLAI-OH) | – | –
500 (≈ 1020 µM) | >1000 | >1000 | >1000 | >1000 | – | CC[C@H](C)[C@H](NC(=O)[C@H](Cc1ccccc1)NC(=O)[C@H](CC(C)C)NC(=O)[C@@H]1CCCN1)C(=O)O [PLFI] (H-PLFI-OH) | – | –
250 (≈ 496 µM) | 250 (≈ 496 µM) | 500 (≈ 993 µM) | 250 (≈ 496 µM) | 250 (≈ 496 µM) | 500 (≈ 993 µM) | CC[C@H](C)[C@H](NC(=O)[C@H](Cc1ccccc1)NC(=O)[C@H](CCCCN)NC(=O)[C@@H]1CCCN1)C(=O)O [PKFI] (H-PKFI-OH) | – | –
